Source: PMC6240685, “Strong Inhibitory Effect, Low Cytotoxicity and High Plasma Stability of Steroidal Inhibitors of N-Methyl-D-Aspartate Receptors With C-3 Amide Structural Motif” (Frontiers in Pharmacology, 2018)
Like-named read-outs stand apart in the source and are kept apart here.

Key:
[1] = Plasma stability, human plasma; type: in vitro ADME
Procedure: Then, 37.8 μL of stock solution was added to 1400 μL of human plasma, maintained at 37°C. Aliquots (50 μL) withdrawn at 0, 1, 4, 8, and 24 h were analyzed by HPLC. […] The supernatant was transferred to an autosampler vial and 1 μL was injected onto LC-MS system. The samples were analyzed with an Agilent 1260 HPLC (Agilent Technologies) coupled to ESI-TOF Agilent 6530 (Agilent Technologies) with Agilent Jet Stream Technology. Samples were separated on a Waters ACQUITY UPLC CSH Phenyl-Hexyl (100 × 2.1, 130 Å, 1.7 μm) at a flow rate 0.3 ml/min. […] The mass spectrometry instrument was operated in a negative ion mode with a voltage of +3.00 kV applied to the capillary. The temperature, the flow rate of the nitrogen drying gas, the pressure of the nitrogen nebulizing gas, and the flow rate of the sheath gas were set at 325°C, 10 l/min, 40 psi, 390°C, and 11 l/min, respectively. Results are represented as a percentage of a compound remaining in spiked human plasma.

[2] = Plasma stability, rat plasma; type: in vitro ADME
[3] = tested on: HepG2 cells; experiment: Hepatotoxicity, XTT viability after 72 h; type: cell-based; conditions: Homo sapiens; 72 h, HepG2, 5.5 mM glucose; read-out: Hepatotoxicity IC50, 5.5 mM glucose
Procedure: Then, the cell viability (XTT assay) and reactive oxygen species (ROS) induction were evaluated.
(§1) (A) Hepatotoxicity provoked by compound 4 was assessed after 72 h incubation of HepG2 cells in low glucose medium (5 mM) in the presence of compound 4 (0.25–100 μM). (B) Mitochondrial toxicity was determined after 24 h incubation of HepG2 cells in either high glucose medium (25 mM) or galactose medium (10 mM) in the presence of compound 4 (2.5–150 μM). Cell viabilities were recorded in triplicates in three independent experiments and expressed as percentage of vehicle control ± SD and IC50 values were determined by GraphPad Prism software using following equation: Y = Bottom + (Top–Bottom)/(1 + 10ˆ((LogIC50-X)^∗HillSlope)), where IC50 is the concentration of compound 4 that inhibits cell viability half way between Bottom and Top plateaus, X is compound 4 concentration and HillSlope describes the steepness of the family of curves. […] (C) Concentration-dependent effect on ROS level. HepG2 cells were treated with compound 4 (0.25–100 μM) for 72 h, and then the intracellular level of total ROS in relative fluorescence units (RFU) was detected. The data are presented as the mean ± SD for at least three independent experiments and each experiment was carried out in triplicate. Final concentration of DMSO in samples was 1%. […] Single asterisks (^∗) indicate a significant difference (P < 0.05) compared to 1% DMSO control (one-way ANOVA with Dunnett’s post-test).
(§2) HepG2 cells (ATCC®, United Kingdom) were grown in complete Minimal Essential Medium (EMEM) (5.5 mM glucose) medium, supplemented with 10% (v/v) fetal calf serum, 200 μg/mL of streptomycin, 200 U/mL of penicillin G and 4 mM glutamine. They were cultured under a humidified atmosphere containing 5% CO2 at 37°C.
(§3) The cytotoxicity of the tested compounds was assessed with use of XTT cell proliferation kit II (Roche Diagnostics GmbH, Mannheim, Germany) according to the manufacturer’s instructions. Briefly HepG2 cells were seeded in a 96-well plate at a density of 22,000 cells per well. After 24 h, the tested neurosteroids in a concentration range from 0.5 to 200 μM were added to the culture media and incubated for 72 h before the XTT dye was added. Mitochondrial toxicity was assessed in HepG2 cells using glucose and galactose conditioned media and XTT assay as a read out for cell viability. In brief, cells were seeded onto 96 well, clear bottom tissue culture plates at a density of 22,000 cells/well and left overnight to attach. Six hours prior to the neurosteroids treatment the media was replaced with 100 μL DMEM media containing either glucose (25 mM glucose; 1 mM pyruvate; 2 mM glutamine, 10% FBS) or galactose (10 mM galactose, 1 mM pyruvate, 6 mM glutamine, 10% FBS). After that, the tested neurosteroids in a concentration range from 0.5 to 200 μM were added in the fresh appropriate assay medium (glucose or galactose) and incubated for 24 h before the XTT dye was added. The XTT absorbance was recorded at 495 nm after 1 h incubation with the dye. Compounds were dissolved in DMSO to produce the stock solutions at the concentration of 10 mM, with exception of PAG, 1, 6 (5 mM), and 11 (2.5 mM). Results were expressed as percentages of change in viability compared to appropriate DMSO control. IC50 values were determined by GraphPad Prism version 5.00 for Windows (GraphPad Software, La Jolla, CA, United States). All experiments were done in triplicates in three independent experiments to check the reproducibility.

[4] = tested on: HepG2 cells; experiment: ROS induction (CM-H2DCFDA); type: cell-based; conditions: Homo sapiens, HepG2, 72 h; read-out: ROS induction EC50
Procedure: as §1
The effect of neurosteroids on oxidative stress was determined using general oxidative stress indicator CM-H2DCFDA (Thermo Fisher Scientific, Waltham, MA, United States) according to the manufacturer’s instructions. Briefly HepG2 cells were seeded in a 96-well plate at a density of 13,500 cells per well. After 24 h, the tested neurosteroids were added to the culture media and incubated for 72 h. Subsequently, cells were washed with HBSS, treated with 100 μL of 1 μM CM-H2DCF-DA solution in HBSS and incubated for 1 h in the dark at 37°C. Finally, cells were washed three times with HBSS and the fluorescence was measured using 495 excitation and 527 emission in fluorescence microplate reader (Cytation 3, Winooski, VT, United States). IC50 index values were determined by GraphPad Prism version 5.00 for Windows (GraphPad Software, La Jolla, CA, United States).

[5] = tested on: HepG2 cells; experiment: Mitotoxicity, XTT viability in glucose vs galactose medium; conditions: for Glu/Gal index (fold change): 24 h, HepG2, index higher than 3 indicates potential mitochondrial toxicity; for IC50: Homo sapiens, HepG2, 24 h
Procedure: as §1, §2, §3

[6] = molecular target: T1, GluN1/GluN2B receptors (Rattus norvegicus, UniProt P35439+Q00960); experiment: Patch-clamp inhibition of glutamate responses of GluN1/GluN2B receptors in transfected HEK293 cells; type: cell-based
T1 construct: expressed in transfected cells; host or cells: HEK293
T1 sequence (Q00960 27-1482, other chains not shown): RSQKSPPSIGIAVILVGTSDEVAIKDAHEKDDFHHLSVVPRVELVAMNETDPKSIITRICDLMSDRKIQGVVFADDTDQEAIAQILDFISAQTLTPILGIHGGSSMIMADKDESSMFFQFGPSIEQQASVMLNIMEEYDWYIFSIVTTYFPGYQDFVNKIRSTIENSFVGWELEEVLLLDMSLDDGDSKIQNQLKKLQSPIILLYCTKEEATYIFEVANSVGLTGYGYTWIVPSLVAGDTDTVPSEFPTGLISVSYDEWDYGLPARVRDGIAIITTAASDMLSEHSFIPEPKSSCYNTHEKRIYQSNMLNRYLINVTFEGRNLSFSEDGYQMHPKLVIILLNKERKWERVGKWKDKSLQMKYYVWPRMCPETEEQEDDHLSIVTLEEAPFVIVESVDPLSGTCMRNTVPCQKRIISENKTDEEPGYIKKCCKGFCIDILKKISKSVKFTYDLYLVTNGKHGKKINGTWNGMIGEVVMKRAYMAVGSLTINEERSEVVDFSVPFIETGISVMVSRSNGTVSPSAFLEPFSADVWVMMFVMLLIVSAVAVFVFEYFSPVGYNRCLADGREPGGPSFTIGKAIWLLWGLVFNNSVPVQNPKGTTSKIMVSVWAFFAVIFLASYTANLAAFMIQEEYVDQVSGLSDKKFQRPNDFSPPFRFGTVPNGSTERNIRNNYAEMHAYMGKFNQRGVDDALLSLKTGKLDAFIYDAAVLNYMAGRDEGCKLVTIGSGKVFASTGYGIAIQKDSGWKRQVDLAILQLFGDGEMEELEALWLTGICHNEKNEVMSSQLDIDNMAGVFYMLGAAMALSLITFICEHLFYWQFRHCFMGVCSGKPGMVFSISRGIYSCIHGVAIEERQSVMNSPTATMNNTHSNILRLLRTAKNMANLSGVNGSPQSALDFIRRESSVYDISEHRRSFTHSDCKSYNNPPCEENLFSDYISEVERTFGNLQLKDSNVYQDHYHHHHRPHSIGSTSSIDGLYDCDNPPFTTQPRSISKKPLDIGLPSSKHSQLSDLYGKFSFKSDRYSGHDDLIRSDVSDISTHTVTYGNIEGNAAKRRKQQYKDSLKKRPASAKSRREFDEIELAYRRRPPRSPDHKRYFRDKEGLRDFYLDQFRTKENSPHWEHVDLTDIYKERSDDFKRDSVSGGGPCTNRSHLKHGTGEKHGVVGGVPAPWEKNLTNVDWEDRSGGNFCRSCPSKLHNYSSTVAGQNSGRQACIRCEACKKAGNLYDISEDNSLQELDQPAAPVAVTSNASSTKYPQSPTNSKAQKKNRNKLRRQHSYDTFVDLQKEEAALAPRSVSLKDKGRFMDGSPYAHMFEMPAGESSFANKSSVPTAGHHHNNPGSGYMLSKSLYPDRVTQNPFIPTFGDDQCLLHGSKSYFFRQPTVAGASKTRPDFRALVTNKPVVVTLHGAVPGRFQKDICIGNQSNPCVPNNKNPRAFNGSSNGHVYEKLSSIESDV

[7] = read-out: Mitotoxicity IC50, 10 mM galactose
[8] = read-out: Mitotoxicity IC50, 25 mM glucose
[9] = as repeated in Table 2, read-out: IC50
[10] = current responses to glutamate, HEK293, IC50 from single steroid dose, Hill coefficient fixed at 1.2, read-out: IC50 ± SD

| Compound | remaining at 8 h, 42.1 μg/mL ([1]; human, plasma) | remaining at 8 h, 42.1 μg/mL ([2]; rat, plasma) | IC50 [3] | melting point | EC50 [4] | Glu/Gal index (fold change) [5] | IC50 [5, 7] | IC50 [5, 8] | ΔGexp [6] | IC50 [6, 9] | IC50 [6, 10] | remaining at 8 h, 42.1 μg/mL ([1]; human plasma, 8 h, 37°C, read-out: Plasma stability (% remaining after 8 h), Human) | remaining at 8 h, 42.1 μg/mL ([2]; rat plasma, 8 h, 37°C, read-out: Plasma stability (% remaining after 8 h), Rat) | IC50 ± SD ([6]; current responses to glutamate, HEK293, IC50 from single steroid dose, Hill coefficient fixed at 1.2) |
| --- | --- | --- | --- | --- | --- | --- | --- | --- | --- | --- | --- | --- | --- | --- |
| CC(C)(C)OC(=O)N[C@H](CCC(=O)N[C@@H]1CC[C@@]2(C)[C@H](CC[C@H]3[C@@H]4CCC[C@@]4(C)CC[C@@H]32)C1)C(=O)O [Compound 11, (R)-2-((tert-butoxycarbonyl)amino)-5-(((3R,5R,8S,9S,10S,13S,14S)-10,13-dimethylhexadecahydro-1H-cyclopenta[a]phenanthren-3-yl)amino)-5-oxopentanoic acid] | 100% | 100% | 91 ± 5 µM | 125 to 128 °C | 103 ± 8 µM | 1 | 193 ± 17 µM | 193 ± 13 µM | -7.49 kcal/mol | 3.4 µM | 3.4 ± 0.1 µM |  |  |  |
| C[C@@]12CCC[C@H]1[C@@H]1CC[C@@H]3C[C@H](NC(=O)[C@@H](N)CCC(=O)O)CC[C@]3(C)[C@H]1CC2 [Compound 8, (S)-4-amino-5-(((3R,5R,8S,9S,10S,13S,14S)-10,13-dimethylhexadecahydro-1H-cyclopenta[a]phenanthren-3-yl)amino)-5-oxopentanoic acid] | 98% | 95% | 65 ± 5 µM |  | 71 ± 9 µM | 1.04 | 94 ± 14 µM | 98 ± 11 µM | -8.02 kcal/mol | 1.4 µM | 1.4 ± 0.2 µM |  |  |  |
| C[C@@]12CCC[C@H]1[C@@H]1CC[C@@H]3C[C@H](NC(=O)CCC(=O)O)CC[C@]3(C)[C@H]1CC2 [Compound 3, 4-(((3R,5R,8S,9S,10S,13S,14S)-10,13-dimethylhexadecahydro-1H-cyclopenta[a]phenanthren-3-yl)amino)-4-oxobutanoic acid] | 98% | 100% | > 200 µM |  | > 200 µM |  | > 200 µM | > 200 µM | -6.78 kcal/mol | 11.2 µM | 11.2 ± 7.2 µM |  |  |  |
| CC(C)(C)OC(=O)N[C@@H](CC(=O)O)C(=O)N[C@@H]1CC[C@@]2(C)[C@H](CC[C@H]3[C@@H]4CCC[C@@]4(C)CC[C@@H]32)C1 [Compound 5, (S)-3-((tert-butoxycarbonyl)amino)-4-(((3R,5R,8S,9S,10S,13S,14S)-10,13-dimethylhexadecahydro-1H-cyclopenta[a]phenanthren-3-yl)amino)-4-oxobutanoic acid] | 100% | 93% | > 200 µM |  | > 200 µM |  | > 200 µM | > 200 µM | -7.22 kcal/mol | 5.4 µM | 5.4 ± 2.3 µM |  |  |  |
| CS(=O)(=O)Nc1ccc([N+](=O)[O-])cc1Oc1ccccc1 [Nimesulide, nimesulide, reference compound] |  |  | 2.2 ± 0.3 µM |  | 3.5 ± 0.5 µM | 3.88 | 18 ± 4 µM | 72 ± 8 µM |  |  |  |  |  |  |
| C[C@@]12CCC[C@H]1[C@@H]1CC[C@@H]3C[C@H](NC(=O)CCCC(=O)O)CC[C@]3(C)[C@H]1CC2 [Compound 4, 5-(((3R,5R,8S,9S,10S,13S,14S)-10,13-dimethylhexadecahydro-1H-cyclopenta[a]phenanthren-3-yl)amino)-5-oxopentanoic acid] | 96% | 99% | 4 ± 0.2 µM |  | 7 ± 2 µM |  | 11 ± 3 µM | 48 ± 6 µM | -6.92 kcal/mol | 8.9 µM | 8.9 ± 1 µM |  |  |  |
| C[C@@]12CCC[C@H]1[C@@H]1CC[C@@H]3C[C@H](NC(=O)C(=O)O)CC[C@]3(C)[C@H]1CC2 [Compound 1, 2-(((3R,5R,8S,9S,10S,13S,14S)-10,13-dimethylhexadecahydro-1H-cyclopenta[a]phenanthren-3-yl)amino)-2-oxoacetic acid] |  |  | 42 ± 7 µM |  | 52 ± 6 µM | 1.97 | 72 ± 9 µM | 142 ± 12 µM | -6.39 kcal/mol | 21.7 µM | 21.7 ± 4.8 µM | 100% | 100% | least inhibitory activity |
| C[C@@]12CCC[C@H]1[C@@H]1CC[C@@H]3C[C@H](NC(=O)CC(=O)O)CC[C@]3(C)[C@H]1CC2 [Compound 2, 3-(((3R,5R,8S,9S,10S,13S,14S)-10,13-dimethylhexadecahydro-1H-cyclopenta[a]phenanthren-3-yl)amino)-3-oxopropanoic acid] | 98% | 100% | 148 ± 14 µM |  | 165 ± 18 µM | 1.32 | 174 ± 12 µM | > 200 µM | -6.59 kcal/mol |  |  |  |  |  |
| CC(C)(C)OC(=O)N[C@@H](CCC(=O)O)C(=O)N[C@@H]1CC[C@@]2(C)[C@H](CC[C@@H]3[C@@H]4CCC[C@@]4(C)CC[C@@H]32)C1 [Compound 7, (S)-4-((tert-butoxycarbonyl)amino)-5-(((3R,5R,8R,9S,10S,13S,14S)-10,13-dimethylhexadecahydro-1H-cyclopenta[a]phenanthren-3-yl)amino)-5-oxopentanoic acid] | 97% | 94% | > 200 µM |  | > 200 µM |  | > 200 µM | > 200 µM | -7.22 kcal/mol | 5.4 µM | 5.4 ± 2.4 µM |  |  |  |
